In brackets after ≈: the same amount, converted by molar mass.
Key:
Staphylococcus aureus 04 [1] = test: Bacterial growth inhibition (antibacterial assay, MIC); format: cell-based; conditions: marine broth, overnight
Description: (§1) The antibacterial activities of albofungins were tested following specific protocols (She et al., 2020). Marine broth was used as the test medium for the marine bacteria, and the MHB broth was used as the test medium for the pathogenic bacteria. The plate was kept at 22° C. or 30° C. overnight, and the minimum inhibitory concentration (MIC) is the lowest concentration that the drug prevents the visible growth of bacteria. The bacteria which have successfully formed biofilms were further used for antibiofilm formation assays. Different concentrations of albofungin compounds were added to each well. Biofilm formation was assessed through the MTT assay as previously described. […] Data were analyzed using one-way ANOVA to detect significant differences and standard deviation (SD) was calculated using GraphPad Prism 9. All the assays were performed in triplicate.

Staphylococcus sp. Z01 [2] = test: as above; format: cell-based; conditions: marine broth, overnight
Description: as §1

[3] = tested on: MCCC 1A11723 Psychrobacter nivimaris; test: as above; format: cell-based; conditions: marine broth, overnight
Description: as §1

Micrococcus sp. Z02 [4] = test: as above; format: cell-based; conditions: marine broth, overnight
Description: as §1

[5] = tested on: MCCC 1A04899 Sulfitobacter pontiacus; test: as above; format: cell-based
Description: as §1

[6] = tested on: MCCC 1A01390 Pseudomonas pachastrellae; test: as above; format: cell-based; conditions: Halopseudomonas pachastrellae; marine broth, overnight
Description: as §1

[7] = tested on: Enterobacter cloacae NRRL-B-425; test: Biofilm inhibition assay (MTT), pathogenic bacteria; format: cell-based; conditions: lowest concentration inhibiting 90% of biofilm formation
Description: (§2) The ability of the bacteria to form static biofilms was tested. Marine bacteria were cultured overnight in marine broth at 22° C. with 220 rpm agitation (Pseudomonas pachastrellae MCCC 1A01390, Sulfitobacter pontiacus MCCC 1A04899 and Psychrobacter nivimaris MCCC 1A 11723) and at 30° C. (Staphylococcus aureus B04, Staphylococcus sp. Z01 and Micrococcus sp. Z02) and then diluted to 10^7 CFU mL^−1 in marine broth supplemented with 1% of glucose; pathogenic bacteria was cultured overnight in LB broth with 1% glucose with 220 rpm at 37° C. Afterwards, 200 μL of the diluted solution were added to each well of a 96-well plate (Corning Inc., New York, USA) and was then incubated at 22° C. or 30° C. for 24 h. The culture medium, planktonic cells and loosely adhered bacteria were removed by dual washing with a phosphate-buffered saline (PBS) buffer, and the firmly attached bacteria were incubated with 20 μL of MTT (5 mg mL^−1) at 37° C. for 3 h. The supernatant was discarded, and formazan was dissolved in 150 μL of DMSO. Absorbance was measured using the Multiskan™ FC microplate photometer (Thermo Fisher Scientific, Waltham, USA) under 570 nm, and MRSA ATCC 43300 was used as a positive control. All the experiments were performed in triplicate.
as §1

Escherichia coli k12 = test: as above; format: cell-based; conditions: lowest concentration inhibiting 90% of biofilm formation
Description: as §2, §1

[8] = tested on: Acinetobacter baumannii B-65371; test: as above; format: cell-based; conditions: lowest concentration inhibiting 90% of biofilm formation
Description: as §2, §1

[9] = Release rate of albofungin from coatings into artificial seawater (HPLC); format: physicochemical; conditions: for highest release rate: first day, artificial seawater
Description: Around 1 g of albofungin compound was isolated, purified and analyzed using HPLC to guarantee over 95% purity. Albofungin-based hydrolysable and degradable copolymer coating was prepared as follows: methyl methacrylate (MMA) and tributylsilyl methacrylate (TBSM) copolymer (PMSMO) was synthesized via radical ring-opening polymerization (Zhou et al., 2015). For 5 wt % of albofungin-based coating, 0.95 g of PMSMO and 0.05 g of albofungin were dissolved in xylene and tetrahydrofuran (v:v=1:2) and mixed vigorously at room temperature. The solution was then coated on the PVC panels (4×7 cm^2) and dried at room temperature for 7 days (Ma et al., 2017). Other coatings with different albofungin concentrations (10 and 15 wt %) were prepared using the same procedure. The coating with PMSMO only was used as a […]. Each concentration was prepared for three biological replicates. The field test was conducted from March to April 2021 in a fish farm at Yung Shue O, Hong Kong (22° 24′N, 114° 21′E), which was heavily fouled all year round. The PVC panel was submerged into seawater at a depth of 0.5 meters for 2 months, retrieved, washed with seawater, and photographed. The area covered by biofoulers was calculated by Image J (Fiji-2.2.0) (Schindelin, et al., 2012). One-way ANOVA was used to compare the albofungin-coated panels and the control panels. The release rate of albofungin under static conditions was determined by measuring the compound concentration with HPLC. Albofungin-based coatings were applied onto a PVC panel (20×75 mm^2) and submerged in artificial seawater (ASW). After 7 days, the panel was transferred to an individual container with 100 mL of ASW. After 24 h of immersion, 10 mL of the seawater was taken out of the container and extracted with the same volume of ethyl acetate three times. After drying under the SpeedVac vacuum concentrators, the extracts were dissolved in 100 μL of methanol and then subjected to HPLC using a reversed-phase system (Waters 2695) with a Phenomenex Luna C18 column connected to a UV detector at 300 nm. The unique UV absorption of albofungin and retention time were determined, with the amount being calculated from the established standard curves using peak areas plotted against known standard quantities.

[10] = tested on: bryozoan Bugula neritina larvae; test: Anti-larval settlement bioassay, bryozoan; format: in vivo
Description: (§3) A. amphitrite adults were collected from Pak Sha Wan Pier, Hong Kong (22° 38′N, 114° 28′E) and after keeping in the dark for 24 h, a light source was used to stimulate the larval release. Within 1 h, the larvae were collected and cultured in 0.22 μm filtered seawater with a daily diet of Chaetoceros gracilis Schutt at 1×10^6 cells mL^−1 until their growth into cyprids, which were used for the anti-larval settlement bioassay. The bryozoan B. neritina adults were collected from a fish farm in Pak Shek Kok, Hong Kong (22° 43′N, 114° 20′E) and kept in flow-through seawater for no more than 7 days before use. The larvae were released within 30 minutes before the bioassay as described (Xu et al., 2010). The bioassay was conducted in a 24-well polystyrene tissue culture plate with 15-20 larvae in each well. 0.1% of DMSO in filtered seawater (FSW), and 0.625, 1.25, 2.5, 5, 10, 20, and 40 μg mL^−1 albofungin concentrations were tested in triplicate. In each well, 1 mL of FSW containing 15-20 larvae and 1 mL of albofungin solution of different concentrations. The plate was kept for 48 h at 25° C. (bryozoan B. neritina larvae were kept for 3 h). The wells with 0.1% of DMSO in FSW served as a negative control, and butenolide was used as a positive control. The number of attached, swimming, and dead larvae were counted under an Olympus optical microscope (Olympus Corporation, Tokyo, Japan). The settlement rate was calculated as the ratio of settled larvae to the total number of larvae in each well, and the death rate was calculated as the ratio of dead or missing larvae to the total number of larvae in each well. Half maximal effective concentration (EC50) and half lethal concentration (LC50) were determined for each compound, and the ratio of LC50/EC50 was used to evaluate the toxicity of the antifoulant. Experiments were performed in triplicate. Data were analyzed by one-way ANOVA to detect significant differences in the larval settlement, and SD was calculated by GraphPad Prism 9.

[11] = Anti-larval settlement bioassay, bryozoan; format: in vivo, Bugula neritina; conditions: Bugula neritina (bryozoan), larvae, in vivo; larval mortality, 3 h
Description: as §3

Staphylococcus aureus 04 [12] = test: Biofilm inhibition assay (MTT), marine bacteria; format: cell-based; conditions: lowest concentration inhibiting 90% of biofilm formation; 24 h
Description: as §2, §1

Staphylococcus sp. Z01 [13] = test: Biofilm inhibition assay (MTT), marine bacteria; format: cell-based; conditions: lowest concentration inhibiting 90% of biofilm formation; 24 h
Description: as §2, §1

[14] = tested on: MCCC 1A11723 Psychrobacter nivimaris; test: Biofilm inhibition assay (MTT), marine bacteria; format: cell-based; conditions: lowest concentration inhibiting 90% of biofilm formation; 24 h
Description: as §2, §1

Micrococcus sp. Z02 [15] = test: Biofilm inhibition assay (MTT), marine bacteria; format: cell-based; conditions: lowest concentration inhibiting 90% of biofilm formation; 24 h
Description: as §2, §1

[16] = tested on: MCCC 1A04899 Sulfitobacter pontiacus; test: Biofilm inhibition assay (MTT), marine bacteria; format: cell-based; conditions: lowest concentration inhibiting 90% of biofilm formation; 24 h
Description: as §2, §1

[17] = tested on: MCCC 1A01390 Pseudomonas pachastrellae; test: Biofilm inhibition assay (MTT), marine bacteria; format: cell-based; conditions: lowest concentration inhibiting 90% of biofilm formation; 24 h
Description: as §2, §1

[18] = Anti-larval settlement bioassay, barnacle; format: in vivo, Amphibalanus amphitrite; conditions: Amphibalanus amphitrite (barnacle), cyprid larvae, in vivo; larval mortality, 48 h at 25° C.
Description: as §3

[19] = tested on: barnacle Amphibalanus amphitrite larvae; test: Anti-larval settlement bioassay, barnacle; format: in vivo; conditions: for EC50: Amphibalanus amphitrite, 48 h; for settlement rate compared with control group (0.1% DMSO in FSW): after 48 h of incubation; for LC50/EC50: ratio used to evaluate toxicity of the antifoulant
Description: as §3

MRSA ATCC 43300 = test: Biofilm inhibition assay (MTT), pathogenic bacteria; format: cell-based, Staphylococcus aureus; conditions: lowest concentration inhibiting 90% of biofilm formation
Description: as §2
as §1, with “All the assays were performed in triplicate.” left out

Structure (SMILES) | MIC (Staphylococcus aureus 04 [1]) | MIC (Staphylococcus sp. Z01 [2]) | MIC [3] | MIC (Micrococcus sp. Z02 [4]) | MIC [5] | MIC [6] | MBIC90 [7] | MBIC90 (Escherichia coli k12) | MBIC90 [8] | MBIC90 (Staphylococcus aureus 04 [12]) | MBIC90 (Staphylococcus sp. Z01 [13]) | MBIC90 [14] | MBIC90 (Micrococcus sp. Z02 [15]) | MBIC90 [16] | MBIC90 [17] | LC50 at 48 h [18] | EC50 [19] | settlement rate compared with control group (0.1% DMSO in FSW) [19] | LC50/EC50 [19] | MBIC90 (MRSA ATCC 43300) | further results
CO[C@@H]1CC[C@H](O)c2c1oc1c3c4c(c(O)c1c2=O)-c1c(cc2cc(C)n(N)c(=O)c2c1O)C[C@H]4OCO3 [Albofungin (1), albofungin] | 0.0032 mg/L (≈ 0.00615 µM) | 0.0008 mg/L (≈ 0.00154 µM) | > 20 mg/L | 0.0032 mg/L (≈ 0.00615 µM) | 0.032 mg/L (≈ 0.0615 µM) | 0.5 mg/L (≈ 0.961 µM) | 1.25 to 2.5 µg/mL | 0.63 to 1.25 µg/mL | 0.06 to 0.13 µg/mL | 15.63 to 31.25 ng/mL | 0.63 to 1.25 ng/mL | 10 to 20 µg/mL | 31.25 to 62.50 ng/mL | 0.13 to 0.25 µg/mL | 0.25 to 0.50 µg/mL | > 100 mg/L | 1.6 mg/L (≈ 3.07 µM) | significantly lower | 62.5 | 0.01 to 0.03 µg/mL | highest release rate ([9]; 5 wt % albofungin coating): 0.86 μg day-1 cm^−2; highest release rate ([9]; 10 wt % albofungin coating): 1.1 μg day-1 cm^−2; release rate decreased to ([9]; 15, 10 and 5 wt % coatings, time-dependent, within 35 days): approximately 0.08 μg day-1 cm^−2; highest release rate ([9]; 15 wt % albofungin coating): 1.4 μg day-1 cm^−2; larval settlement ([10]; 2.5 μg mL^−1, 3 h): 44% (±9.0%); EC50 ([10]; Bugula neritina, larval settlement, 3 h): 1.9 mg/L (≈ 3.65 µM); lethal effects ([10]; highest concentration tested): no lethal effects; LC50/EC50 ([10]; ratio used to evaluate toxicity of the antifoulant): 52.6; LC50 at 3 h [11]: > 100 mg/L; larval settlement rate ([19]; 2.5 μg mL^−1, 48 h): 33% (±5.3%); antifouling activity against larval settlement compared with butenolide ([19]; according to the EC50 value): equivalent antifouling activity
Cc1cc2cc3c(c(O)c2c(=O)n1N)-c1c2c(c4oc5c(c(=O)c4c1O)[C@@H](O)CC[C@H]5O)OCO[C@@H]2C3 [Albofungin A (2), albofungin A] | 0.0064 mg/L (≈ 0.0126 µM) | 0.0008 mg/L (≈ 0.00158 µM) | > 20 mg/L | 0.0064 mg/L (≈ 0.0126 µM) | 0.008 mg/L (≈ 0.0158 µM) | 0.12 mg/L (≈ 0.237 µM) | 0.63 to 1.25 µg/mL | 0.31 to 0.63 µg/mL | 0.13 to 0.25 µg/mL | 15.63 to 31.25 ng/mL | 0.63 to 1.25 ng/mL | >20 µg/mL | 62.5 to 125 ng/mL | 0.02 to 0.03 µg/mL | 0.02 to 0.03 µg/mL | > 100 mg/L | 12.2 mg/L (≈ 24.1 µM) | significantly lower | 8.2 | 0.01 to 0.03 µg/mL | larval settlement rate ([19]; 20 μg mL^−1, 48 h): 17% (±12.7%)

— patent US12410323B2, “Potent antifouling agents albofungins target multiple fouling organisms” (The Hong Kong University of Science and Technology, priority 2021, dated 2025)
